From US11124550B2, “Proteinaceous molecules and methods of use” (priority 2015, dated 2021) come the findings set out here.

SMILES strings stand for the structures.

For the data set the following is noted: after 72 hours, 37° C., 1 μM.

As for `CC[C@H](C)[C@@H]1NC(=O)[C@H](CCCNC(=N)N)NC(=O)[C@H](CC(=O)O)NC(=O)[C@H](CCSC)NC(=O)[C@H](CCCNC(=N)N)NC(=O)CNC(=O)CNC(=O)[C@H](Cc2ccccc2)NC(=O)[C@@H](NC(=O)[C@H](CO)NC(=O)[C@H](CO)NC(=O)[C@H](CCCNC(=N)N)NC(=O)[C@H](CCCNC(=N)N)NC(=O)[C@H](CC(C)C)NC(=O)[C@@H](N)CO)CSSC[C@@H](C(=O)N[C@@H](CC(N)=O)C(=O)N[C@@H](CO)C(=O)N[C@@H](Cc2ccccc2)C(=O)N[C@@H](CCCNC(=N)N)C(=O)N[C@@H](Cc2ccc(O)cc2)C(=O)O)NC(=O)CNC(=O)[C@H](CC(C)C)NC(=O)CNC(=O)[C@H](CO)NC(=O)[C@H](CCC(N)=O)NC(=O)[C@H](C)NC(=O)CNC1=O` [hANP], the “peptide remaining in human CSF” value is listed as “no detectable”.
